Reference: patent publication US20060019270A1, “Global DNA methylation assessment using bisulfite PCR” (Board of Regents The University of Texas System, priority 2004, published 2006)

Assays:
Format in all cases: cell-based, human
[1] = tested on: Alu element methylation in SW48 cells; experiment: COBRA (MboI) of Alu repetitive element PCR, SW48 cells treated with DAC; conditions: 5 μM DAC for three days, decrease from 28%
Description: (§1) Hct116, RKO and SW48, colon cancer cell lines (American Type Culture Collection, Manassas, Va.), were cultured using standard methods. Cells were treated with 5 μM 5-aza-2′deoxycytidine (DAC) for three days prior to being harvested. DNA from cell lines and peripheral blood leukocytes was extracted using phenol-chloroform extraction methods well known to one with skill on the art.
(§2) Bisulfite modification of genomic DNA is known in the art (see Clark et. al, 1994). In brief, 1.5 μg prepared 10 mM hydroquinone (Sigma) and 520 μl of 3M Sodium Bisulfite (Sigma) at pH=5.0 were added and mixed. The samples were overlayed with mineral oil to prevent evaporation and incubated at 50° C. for 16 hours. […] Bisulfite treated DNA was stored at −20° C. until ready for use.
Methylation analysis of Alu repetitive elements was performed initially by the COBRA assay. […] The digested PCR product was then separated by polyacrylamide gel electrophoresis or the PCR products were quantitated using a capillary electrophoresis system, an Agilent 2100 Bioanalyzer (Agilent Technologies, Palo Alto, Calif.).
In order to test whether Alu element […] LINE-1 methylation could approximate global methylation, COBRA, restriction digestion of the repetitive element PCR product, was used to quantitate DNA methylation in cell lines treated with 5-aza-2′deoxycytidine (DAC) (FIG. 3). […]

[2] = tested on: LINE-1 methylation in RKO cells; experiment: COBRA (HinfI) of LINE-1 PCR, RKO cells treated with DAC; conditions: 5 μM DAC for three days, decrease from 67%
Description: as §1
Bisulfite modification of genomic DNA is known in the art (see Clark et. al, 1994). In brief, 1.5 μg prepared 10 mM hydroquinone (Sigma) and 520 μl of 3M Sodium Bisulfite (Sigma) at pH=5.0 were added and mixed. The samples were overlayed with mineral oil to prevent evaporation and incubated at 50° C. for 16 hours. The bisulfite treated DNA was isolated using Wizard DNA Clean-Up System (Promega). The DNA was eluted by 50 μl of warm water and 5.5 μl of 3M NaOH were added for 5 minutes. The DNA was ethanol precipitated with glycogen as a carrier and resuspended in 20 μl water. Bisulfite treated DNA was stored at −20° C. until ready for use. […]
In order to test whether Alu element […] LINE-1 methylation could approximate global methylation, COBRA, restriction digestion of the repetitive element PCR product, was used to quantitate DNA methylation in cell lines treated with 5-aza-2′deoxycytidine (DAC) (FIG. 3). […] Thus both assays reliably detected inhibition of methylation induced by DAC. […]

[3] = tested on: Alu element methylation in Hct116 cells; experiment: Bisulfite Alu PCR and pyrosequencing, Hct116 cells treated with DAC
Description: as §1, §2
The Alu element PCR reaction was modified for pyrosequencing based methylation analysis. […] The PCR product was purified and quantitated using the PSQ HS 96 Pyrosequencing System (Pyrosequencing, Inc.; Westborough, Mass.). […]
Bisulfite Alu PCR products could also be analyzed by pyrosequencing allowing for a rapid analysis of multiple CpG sites. […] This method has the advantage of analyzing several methylation sites, is not restricted to restriction enzyme sites, avoids sequencing multiple clones, and allows accurate quantitation of multiple CpG methylation sites in the same reaction. […]

SMILES: Nc1ncn([C@H]2C[C@H](O)[C@@H](CO)O2)c(=O)n1 [decitabine, 5-aza-2′-deoxycytidine]
- Alu methylation after treatment with DAC [1]: 27%
- LINE-1 methylation after treatment with DAC [2]: 29%
- Alu methylation after DAC as percent of potential methylation sites ([3]; pyrosequencing, untreated about 87%): 62%
- Alu methylation by pyrosequencing after DAC treatment (average of three CpG sites) ([3]; untreated 20.2%, SssI maximum 23.2%): 14.5%
